According to ChEMBL document CHEMBL5376003, “Structure-Activity Relationship of FL118 Platform Position 7 Versus Position 9-Derived Compounds and Their Mechanism of Action and Antitumor Activity” (J Med Chem, 2023):
Calls of active or inactive are those of the source. The calls are words filed in the database; no cut-off is given here.

Legend:
HCT-116 [1] = test: Induction of apoptosis in human HCT-116 cells assessed as increase in intracellular ROS level incubated for 48 hrs by DCFH-DA staining based fluorescence microscopy; type: functional, cell-based
HCT-116 [2] = test: Induction of apoptosis in human HCT-116 cells assessed as increase in intracellular ROS level at 10 to 1000 nM incubated for 12 hrs by DCFH-DA staining based fluorescence microscopy; type: functional, cell-based; conditions: dose 10-1000 nM
HepG2 = test: Growth inhibition of human HepG2 cells incubated for 48 hrs by MTT reagent based ELISA reader analysis; type: functional, cell-based; conditions: HepG2, 48 h
HCT-116 [3] = test: Inhibition of cell migration in human HCT-116 cells assessed as intercellular distance at 5 nM incubated for 24 hrs by inverted phase-contrast microscopic analysis (reference value: 1 +/- 0.2 millimeter); type: functional
HCT-116 [4] = test: Induction of apoptosis in human HCT-116 cells assessed as upregulation of DDX5 mRNA expression at 500 nM incubated for 6 hrs by RNA analysis; type: functional, cell-based
HCT-116 [5] = test: Induction of apoptosis in human HCT-116 cells assessed as modulation of DDX6 mRNA expression at 10 to 500 nM incubated for 6 to 48 hrs by RNA analysis; type: functional, cell-based; conditions: dose 10-500 nM, time 6-48 hrs
HCT-116 [6] = test: Induction of apoptosis in human HCT-116 cells assessed as downregulation of PRIM1 mRNA expression at 10 to 500 nM incubated for 6 to 48 hrs by RNA analysis; type: functional, cell-based; conditions: dose 10-500 nM, time 6-48 hrs
HCT-116 [7] = test: Induction of apoptosis in human HCT-116 cells assessed as upregulation of ADA mRNA expression at 10 to 500 nM incubated for 6 to 48 hrs by RNA analysis; type: functional, cell-based; conditions: dose 10-500 nM, time 6-48 hrs
HCT-116 [8] = test: Induction of apoptosis in human HCT-116 cells assessed as upregulation of POLR2A mRNA expression at 10 to 500 nM incubated for 6 to 48 hrs by RNA analysis; type: functional, cell-based; conditions: dose 10-500 nM, time 6-48 hrs
HCT-116 [9] = test: Induction of apoptosis in human HCT-116 cells assessed as downregulation of END1 gene expression at 10 to 500 nM incubated for 6 to 48 hrs by RNA analysis; type: functional, cell-based; conditions: dose 10-500 nM, time 6-48 hrs
HCT-116 [10] = test: Induction of apoptosis in human HCT-116 cells assessed as downregulation of NDC1 gene expression at 10 to 500 nM incubated for 6 to 48 hrs by RNA analysis; type: functional, cell-based; conditions: dose 10-500 nM, time 6-48 hrs
HCT-116 [11] = test: Induction of apoptosis in human HCT-116 cells assessed as downregulation of NUP205 gene expression at 10 to 500 nM incubated for 6 to 48 hrs by RNA analysis; type: functional, cell-based; conditions: dose 10-500 nM, time 6-48 hrs
HCT-116 [12] = test: Induction of apoptosis in human HCT-116 cells assessed as downregulation of NUP210 gene expression at 10 to 500 nM incubated for 6 to 48 hrs by RNA analysis; type: functional, cell-based; conditions: dose 10-500 nM, time 6-48 hrs
HCT-116 [13] = test: Induction of apoptosis in human HCT-116 cells assessed as downregulation of NUP43 gene expression at 10 to 500 nM incubated for 6 to 48 hrs by RNA analysis; type: functional, cell-based; conditions: dose 10-500 nM, time 6-48 hrs
HCT-116 [14] = test: Induction of apoptosis in human HCT-116 cells assessed as downregulation of SEH1L gene expression at 10 to 500 nM incubated for 6 to 48 hrs by RNA analysis; type: functional, cell-based; conditions: dose 10-500 nM, time 6-48 hrs
HCT-116 [15] = test: Induction of apoptosis in human HCT-116 cells assessed as downregulation of AK8 gene expression at 10 to 500 nM incubated for 6 to 48 hrs by RNA analysis; type: functional, cell-based; conditions: dose 10-500 nM, time 6-48 hrs
HCT-116 [16] = test: Induction of apoptosis in human HCT-116 cells assessed as downregulation of AK2 gene expression at 10 to 500 nM incubated for 6 to 48 hrs by RNA analysis; type: functional, cell-based; conditions: dose 10-500 nM, time 6-48 hrs
HCT-116 [17] = test: Induction of apoptosis in human HCT-116 cells assessed as downregulation of NUDT15 gene expression at 10 to 500 nM incubated for 6 to 48 hrs by RNA analysis; type: functional, cell-based; conditions: dose 10-500 nM, time 6-48 hrs
HCT-116 [18] = test: Induction of apoptosis in human HCT-116 cells assessed as downregulation of LIPE gene expression at 10 to 500 nM incubated for 6 to 48 hrs by RNA analysis; type: functional, cell-based; conditions: dose 10-500 nM, time 6-48 hrs
Cell membrane = test: Induction of mitochondrial membrane potential loss in human HCT-116 cells assessed as ratio of red to green fluorescence intensity at 20 nM incubated for 24 hrs by JC-1 staining based flow cytometry; type: subcellular
PDX27454 [19] = test: Antitumor activity against human PDX27454 cells xenografted in SCID mouse model assessed as reduction in tumor volume at 8 mg/kg,po administrated once per week for 3 weeks; type: functional, organism-based
HCT-116 [20] = test: Induction of apoptosis in human HCT-116 cells assessed as early apoptotic cells at 2.5 nM incubated for 48 hrs by Annexin V-FITC/PI staining based flow cytometry assay; type: functional
HCT-116 [21] = test: Induction of apoptosis in human HCT-116 cells assessed as late apoptotic cells at 2.5 nM incubated for 48 hrs by Annexin V-FITC/PI staining based flow cytometry assay; type: functional
HCT-116 [22] = test: Induction of apoptosis in human HCT-116 cells assessed as late apoptotic cells at 5 nM incubated for 48 hrs by Annexin V-FITC/PI staining based flow cytometry assay; type: functional
HCT-116 [23] = test: Induction of apoptosis in human HCT-116 cells assessed as downregulation of Bcl-2 protein expression incubated for 48 hrs by Western blotting analysis; type: functional, cell-based
HCT-116 [24] = test: Induction of apoptosis in human HCT-116 cells assessed as increase in caspase-9 activity incubated for 48 hrs by BCA protein assay; type: functional, cell-based
HCT-116 [25] = test: Induction of apoptosis in human HCT-116 cells assessed as downregulation of XIAP protein expression incubated for 48 hrs by Western blotting analysis; type: functional, cell-based
PDX27454 [26] = test: Antitumor activity against human PDX27454 cells xenografted in SCID mouse model assessed as reduction in tumor growth at 15 mg/kg,po administrated once per week for 4 weeks; type: functional, organism-based
PDX27454 [27] = test: Antitumor activity against human PDX27454 cells xenografted in SCID mouse model assessed as reduction in tumor growth at 15 mg/kg,ip administrated once per week for 4 weeks; type: functional, organism-based
[28] = Toxicity in SCID mouse xenografted with human PDX27454 cells assessed as body weight loss at 10 mg/kg,po administrated once per week for 4 weeks; type: organism-based; conditions: in vivo, 672 h
[29] = Toxicity in SCID mouse xenografted with human PDX27454 cells assessed as body weight loss at 15 mg/kg,po administrated once per week for 4 weeks; type: organism-based; conditions: in vivo, 672 h
[30] = Toxicity in SCID mouse xenografted with human PDX27454 cells assessed as body weight loss at 8 mg/kg,po administrated once per week for 3 weeks; type: organism-based; conditions: in vivo, 504 h
[31] = Toxicity in SCID mouse xenografted with human PDX27454 cells assessed as animal death at 10 mg/kg,ip administrated once per week for 4 weeks; type: organism-based; conditions: in vivo, 672 h
[32] = Toxicity in SCID mouse xenografted with human PDX27454 cells assessed as body weight loss at 3 to 5 mg/kg,po administrated once per week for 4 weeks; type: organism-based; conditions: in vivo, 672 h, dose 3-5 mg/kg
[33] = Toxicity in SCID mouse xenografted with human PDX27454 cells assessed as body weight loss at 2.5 to 5 mg/kg,ip administrated once per week for 4 weeks; type: organism-based; conditions: in vivo, 672 h, dose 2.5-5 mg/kg

| Compound | Activity (HCT-116 [1]) | Activity (HCT-116 [2]) | IC50 (HepG2) [nM] | Activity (HCT-116 [3]) [mm] | Activity (HCT-116 [4]) | Activity (HCT-116 [5]) | Activity (HCT-116 [6]) | Activity (HCT-116 [7]) | Activity (HCT-116 [8]) | Activity (HCT-116 [9]) | Activity (HCT-116 [10]) | Activity (HCT-116 [11]) | Activity (HCT-116 [12]) | Activity (HCT-116 [13]) | Activity (HCT-116 [14]) | Activity (HCT-116 [15]) | Activity (HCT-116 [16]) | Activity (HCT-116 [17]) | Activity (HCT-116 [18]) | Activity (PDX27454 [19]) | further results |
| --- | --- | --- | --- | --- | --- | --- | --- | --- | --- | --- | --- | --- | --- | --- | --- | --- | --- | --- | --- | --- | --- |
| CC[C@@]1(O)C(=O)OCc2c1cc1n(c2=O)Cc2cc3cc4c(cc3nc2-1)OCO4 | Dose-Dependent Effect | Active | 39.5 | 1.3 | Active | Active | Active | Active | Active | Active | Active | Active | Active | Active | Active | Active | Active | Active | Active | – | – |
| CC[C@@]1(O)C(=O)OCc2c1cc1n(c2=O)Cc2c-1nc1cc3c(cc1c2-c1cc(OC)cc(OC)c1)OCO3 | Dose-Dependent Effect | Active | 118 | 1.5 | Active | Active | Active | – | Active | Active | Active | Active | Active | Active | Active | Active | Active | – | Active | Active | Ratio (Cell membrane): 2.62; Activity (HCT-116 [20]): 20.76%; Activity (HCT-116 [21]): 5.58%; Activity (HCT-116 [22]): 9.79%; Activity (HCT-116 [23]): Dose-Dependent Effect; Activity (HCT-116 [24]): Dose-Dependent Effect |
| CCc1ccc(-c2c3c(nc4cc5c(cc24)OCO5)-c2cc4c(c(=O)n2C3)COC(=O)[C@]4(O)CC)cc1 | Dose-Dependent Effect | Active | 160 | 1.3 | Active | Active | Active | Active | Active | Active | Active | Active | Active | Active | Active | Active | Active | Active | Active | Active | Activity (HCT-116 [25]): Active; Activity (PDX27454 [26]): Active; Activity (PDX27454 [27]): inactive; Activity [28]: Toxic; Activity [29]: Toxic |
| CC[C@@]1(O)C(=O)OCc2c1cc1n(c2=O)Cc2c-1nc1cc3c(cc1c2-c1ccc(OC)cc1)OCO3 | Dose-Dependent Effect | Active | 64 | 1.3 | Active | Active | Active | Active | Active | Active | Active | Active | Active | Active | Active | Active | Active | Active | Active | Active | Activity (HCT-116 [25]): Active; Activity [30]: 20%; Activity [31]: Toxic; Activity [32]: Toxic; Activity [33]: Toxic |
